The values that follow come from US20160368872A1, “COMPOUNDS AND METHODS FOR TREATING CANCERS” (HEALTH RESEARCH, INC., priority 2013, published 2016).

A short description of data set [1]: tissue drug concentrations in mice bearing CWR22R tumors. The class given is in vivo, SCID mice. The procedure: (§1) We tested these compounds in an in vivo efficacy experiment using model of CRPC in SCID mice, CWR22R. Two compounds, PLA1079 and 1125, which were synthesized in the amount of 500 mg were tested in full scale experiment with either 5 IV daily injections or 10 IP daily injections. After 5 IP or IV injections intra-tumor concentration of the compounds were measured in few mice from this experiment.
Two other compounds, PLA1148 and 1098 (PK testing in FIGS. 8 and 9) were tested in a small scale efficacy experiment. Upon PK testing of the compound PLA1148 one mouse was injected twice with 10 min interval. However the concentration of the drug in plasma of this mouse was not twice, but >4 times higher than in mice injected once. […] It was decided to utilize this observation in an attempt to get higher plasma and tumor concentration of both compounds. Therefore in the pilot efficacy experiment in the same model of CWR22R cells mice were treated with 2 IP injections with 10 minute interval. Treatment with PLA1098 was carried out for two days. […] However this is so far the highest concentration found in tumor. […]

A short description of data set [2]: plasma concentration after intravenous and intraperitoneal injections (PK). It is filed as in vivo. To be noted: for bioavailability through IP injection: IP versus IV, doses 50-100 mg/kg; for course of plasma concentration: after intravenous and intraperitoneal injections, 50-100 mg/kg.
The subject of data set [3] is CWR22R tumors. The experiment in a line: in vivo efficacy, subcutaneous xenografts of CWR22R cells in SCID mice. The procedure: as §1
(§2) Two other compounds, PLA1148 and 1098 (PK testing in FIGS. 8 and 9) were tested in a small scale efficacy experiment. Upon PK testing of the compound PLA1148 one mouse was injected twice with 10 min interval. However the concentration of the drug in plasma of this mouse was not twice, but >4 times higher than in mice injected once. […] It was decided to utilize this observation in an attempt to get higher plasma and tumor concentration of both compounds. Therefore in the pilot efficacy experiment in the same model of CWR22R cells mice were treated with 2 IP injections with 10 minute interval. Treatment with PLA1098 was carried out for two days. […] However this is so far the highest concentration found in tumor.
Pilot efficacy experiments were run for compounds: PLA1163, PLA1148 using the same model of subcutaneous xenografts of CWR22R cells in SCID mice (FIGS. 18 and 19).

Data set [4] can be described thus: toxicity observed in mice of the pilot efficacy experiments. The conditions noted are these: 2 IP injections with 10 minute interval, one day. The class given is in vivo. The procedure:
as §2
This compound may be also potentially promising.

Data set [5] in a line: aqueous solubility (pH 7.4). The class given is physicochemical.
Data set [6] relates to CWR22R cells. The class given is cell-based. The procedure: (§3) All compounds were tested for toxicity using 4 cells lines, target cells-CWR22R and non-target cells, Hela, PC3 and MDA-MB-231 (FIGS. 1A-F).
LC50 data of in vitro 72 hours cytotoxicity assay are included in this table for comparison.

The nature of data set [7]: solubility for in vivo administration. The class given is physicochemical.
A short description of data set [8]: metabolic stability in the presence of mouse liver microsomes. It is filed as in vitro ADME. As for the experimental part:
8 compounds were selected based on the solubility and metabolic stability as well as considering chemical diversity to test for time dependence stability in the presence of mouse […] (FIG. 2). […] Two compounds, PLA1190 and 1197, have desirable metabolic stability, 70 and 77% left after 30 minute incubation with mouse liver microsome respectively. Formulations for in vivo administration were developed for 4 compounds, PLA1079, 1125, 1098 and 1148.

Data set [9] concerns CWR22R. The experiment in a line: inhibition of growth of cell lines (IC50 categories). It is filed as cell-based. The conditions noted are these: Homo sapiens, 22Rv1. As for the experimental part:
(§4) This example provides a table (below) of the compounds of the present disclosure and their activity towards four different cell lines (i.e., CWR22R, Hela, PC3, and MDA-MB-231). The IC50 for inhibition of growth is divided into 4 categories: A<1 μM, B 1-5 μM, […], D>20 μM.
as §3

Data set [10] deals with Hela. The description is as above. It is filed as cell-based. To be noted: Homo sapiens. The procedure:
as §4, §3

Data set [11] relates to MDA-MB-231. The data set is described as above. The conditions noted are these: Homo sapiens. The class given is cell-based. As for the experimental part:
as §4, §3

Data set [12] deals with PC3. The data set is described as above. The class given is cell-based. To be noted: Homo sapiens, PC-3. The procedure:
as §4, §3

Setting [13] is: one mouse at 24 hours after injections.

With `O=C1NCCc2c1ccc1c2c2ncccc2n1CCCF` [PLA1148], in data set [1] (50 mg/kg, IP), the “Liver” value is listed as 50 nM and the “Tumor concentration” value lay in the range of 0 to 90 nM. In data set [1] (48 hours after treatment), this molecule gave a Tumor concentration of 84 nM and a liver concentration of 49 nM. The plasma concentration result in [1] (mice euthanized at 48 hours after treatment) is recorded as “The same plasma concentration”. In data set [1] (setting [13]), the drug in liver result is reported as “no drug detected”, the drug in tumor result is reported as “no drug detected” and the plasma concentration was found to be 8.5 nM. For the same molecule, in [2], the “bioavailability through IP injection” value is listed as “very high bioavailability” and the “course of plasma concentration” value is recorded as “fast reduction of concentration during the first hour”. In data set [2] (one mouse injected twice), the “concentration in plasma of mouse injected twice with 10 min interval versus mice injected once” value is over 4 times. Also, in data set [3] (two mice, injected only one day), the “tumors of mice that died on the 5th day” value is on record as “almost undetectable tumors”. For the same molecule, in data set [4], the deaths of mice was 2 mice died next day and 3 other during next 5 days; the toxicity after injection result is listed as “acute toxicity developed quickly after injection, symptoms suggested acute liver failure”.
As for `O=c1c2ccc3c(c2ccn1CCO)c1ccccc1n3CCCF` [PLA1192], in data set [5], the “Aqueous Solubility Classification” value is reported as “Moderate” and the “Aqueous Solubility (pH 7.4)” value came to 15 μM.
The like results for `N#Cc1cccc2c1c1c3cc[nH]c(=O)c3ccc1n2CCCF` [PLA1195] were, in that order, “Low” and 2.7 μM.
`O=C1NCCOc2c1ccc1c2c2ccccc2n1CCCF` [PLA1163] had a CC50 in data set [6] of 0.2 µM. In data set [1] (40 mg/kg, IP), the “Liver” value is recorded as 307 nM and the “Tumor concentration” value was 4 to 10 nM. Moreover, the solubility entry in data set [7] was “poorly soluble”.
As to `O=c1[nH]ccc2c1ccc1c2c2ncccc2n1CCCF` [PLA1181], in data set [5], the “Aqueous Solubility Classification” value is “Low”.
`CC(=O)c1ccc2c(c1)c1c(C(N)=O)cccc1n2CCCF` [PLA1191]: in [5], the “Aqueous Solubility Classification” value is “High” and the “Aqueous Solubility (pH 7.4)” value was determined as 130 μM.
For `O=c1[nH]c2ccc3c(c4ccccc4n3CCCF)c2o1` [PLA1190], in data set [5], the “Aqueous Solubility Classification” value was “Low” and the “Aqueous Solubility (pH 7.4)” value was 3.5 μM. Further, the “left after 30 minute incubation with mouse liver microsome” value in data set [8] was 70%.
As to `O=c1c2ccc3c(c2ccn1CCN1CCCC1)c1ccccc1n3CCCF` [PLA1193], in data set [5], the “Aqueous Solubility Classification” value is “High” and the “Aqueous Solubility (pH 7.4)” value was found to be 140 μM.
With `O=c1[nH]ccc2c1ccc1c2c2ccccc2n1CCCF` [PLA1121], in data set [7], the solubility entry is listed as “poorly soluble”.
As for `O=C1CCc2c1ccc1c2c2c(F)cccc2n1CCCF` [PLA1197], in [5], the “Aqueous Solubility Classification” value is recorded as “Low” and the “Aqueous Solubility (pH 7.4)” value is on record as 4.0 μM. Moreover, the “left after 30 minute incubation with mouse liver microsome” value in [8] is listed as 77%.
For `CCCn1c2ccccc2c2c3cc[nH]c(=O)c3ccc21` [PLA1099], in data set [7], the solubility entry is reported as “poorly soluble”.
On to `FCCCn1c2ccccc2c2cc(-c3nnco3)ccc21` [PLA1125], for which, in data set [6], it took 0.1 µM to reach half-maximal cytotoxicity (CC50). Besides, the “Tumor concentration” value in data set [1] (100 mg/kg, IP/IV) fell in the range of 7 to 10 nM. Also, in data set [2], the “bioavailability through IP injection” value is “very high bioavailability” and the “course of plasma concentration” value was “fast reduction of concentration during the first hour”. The in vivo efficacy result in data set [3] (5 IV daily injections or 10 IP daily injections) is recorded as “absence of in vivo efficacy”.
Regarding `CC(=O)c1ccc2c(c1)c1c3c(ccc1n2CCCF)C(=O)CC3` [PLA1198], in data set [5], the “Aqueous Solubility Classification” value is reported as “Low” and the “Aqueous Solubility (pH 7.4)” value was found to be 2.5 μM.
Turning to `CCCn1c2ccccc2c2c3c(ccc21)C(=O)NCC3` [Compound 2-1, 7-Propyl-2,3-dihydro-1H,7H-pyrido[3,4-c]carbazol-4-one], the IC50 is under 1 µM in [9], over 20 µM in data set [10], over 20 µM in data set [11] and over 20 µM in data set [12].
Regarding `CCCn1c2ccccc2c2c3cc[nH]c(=O)c3ccc21` [Compound 3-1, 7-Propyl-3H,7H-pyrido[3,4-c]carbazol-4-one], the IC50 in data set [9] is under 1 µM; in [10], over 20 µM; in [11], over 20 µM; in data set [12] it was over 20 µM.
Take `CN1Cc2c(ccc3c2c2ncccc2n3CCCF)C1=O` [Compound 14-1, 6-(3-Fluoropropyl)-2-methyl-1,2-dihydro-6H-2,6,10-triazacyclopenta[c]fluoren-3-one]: the IC50 was under 1 µM in data set [9], over 20 µM in data set [10], 5 to 20 µM in data set [11] and over 20 µM in data set [12].
`CCCn1c2ccccc2c2c3c(ccc21)CCC3` [Compound 7-2, 6-Propyl-1,2,3,6-tetrahydro-cyclopenta[c]carbazole]: the IC50 in data set [9] is 1 to 5 µM; in [10] it was over 20 µM; in [11], over 20 µM; in [12] it was over 20 µM.
Take `O=C1NCCc2c1ccc1c2c2ccccc2n1CCCF` [Compound 2-2]: the IC50 is under 1 µM in data set [9], over 20 µM in [10], over 20 µM in data set [11] and over 20 µM in data set [12].
Take `CCCn1c2ccccc2c2c3c(ccc21)C(=O)CCO3` [Compound 1-8]: the IC50 was under 1 µM in data set [9], over 20 µM in data set [10], over 20 µM in data set [11] and over 20 µM in data set [12].
With `O=C1CCc2c1ccc1c2c2cc(Br)ccc2n1CCCF` [PLA1199], in [5], the “Aqueous Solubility Classification” value is on record as “Low” and the “Aqueous Solubility (pH 7.4)” value is 2.3 μM.
For `CCCn1c2ccccc2c2c3occc(=O)c3ccc21` [Compound 3-3], the half-maximal inhibitory concentration (IC50) in [9] is under 1 µM; in [10] it was over 20 µM; in data set [11], 5 to 20 µM; in [12] it was over 20 µM.
In the case of `NC(=O)c1cccc2c1c1c3cc[nH]c(=O)c3ccc1n2CCCF` [PLA1196], in data set [5], the “Aqueous Solubility Classification” value was “Moderate” and the “Aqueous Solubility (pH 7.4)” value stood at 26 μM.
Turning to `O=C1CCOc2c1ccc1c2c2ccccc2n1CCCF` [Compound 1-9], the IC50 in data set [9] was under 1 µM; in [10], over 20 µM; in data set [11], over 20 µM; in [12] it was over 20 µM.
On to `Cn1ncc2c(ccc3c2c2ncccc2n3CCCF)c1=O` [Compound 10-7], for which the IC50 was under 1 µM in data set [9], over 20 µM in [10], 5 to 20 µM in [11] and over 20 µM in data set [12].
In the case of `O=C1CCc2c1ccc1c2c2ncccc2n1CCCF` [Compound 10-2], the IC50 in data set [9] is under 1 µM; in data set [10], over 20 µM; in data set [11], 5 to 20 µM; in data set [12], 5 to 20 µM.
`O=C1CCCc2c1ccc1c2c2ccccc2n1CCCF` [Compound 1-5]: the half-inhibitory concentration (IC50) in data set [9] was under 1 µM; in data set [10] it was over 20 µM; in [11], over 20 µM; in data set [12] it was over 20 µM.
Regarding `CCCn1c2ccccc2c2c3c(ccc21)C(O)CC3` (stereo not drawn) [Compound 7-1, 6-Propyl-1,2,3,6-tetrahydro-cyclopenta[c]carbazol-3-ol], the IC50 in data set [9] is under 1 µM; in data set [10] it was 5 to 20 µM; in data set [11] it was 5 to 20 µM; in data set [12], 5 to 20 µM.
As to `CN1Cc2c(ccc3c2c2ccccc2n3CCC(F)F)C1=O` [PLA1194], in data set [5], the “Aqueous Solubility Classification” value is given as “Moderate” and the “Aqueous Solubility (pH 7.4)” value worked out at 18 μM.

In general, CC50 refers to the concentration that lowers cell viability or growth by half. Low readings indicate harm at low concentration, high ones better tolerance by the cells. For orientation: IC50 means the point on the concentration scale where inhibition reaches its midpoint. A lower IC50 goes with higher potency.
